# Reference: patent US11866430B2, “Naphthyridinone compounds useful as T cell activators” (priority 2018, dated 2024)
# Values joined by “and” are separate entries in the source; they are usually repeats but may differ in a detail not shown here. Equal values may be shown once. Read-outs that look alike come from different tables or passages of the source.
# Tests used:
# human DGKζ [1] = molecular target: T1, human DGKζ (Homo sapiens (Human), UniProt Q13574); assay: DGKζ assay (detergent/lipid micelle substrate); type: biochemical; conditions: detergent/lipid micelle substrate; read-out: DGKζ IC50
# T1 sequence (Q13574 other isoform, or with tags, fused parts or gaps): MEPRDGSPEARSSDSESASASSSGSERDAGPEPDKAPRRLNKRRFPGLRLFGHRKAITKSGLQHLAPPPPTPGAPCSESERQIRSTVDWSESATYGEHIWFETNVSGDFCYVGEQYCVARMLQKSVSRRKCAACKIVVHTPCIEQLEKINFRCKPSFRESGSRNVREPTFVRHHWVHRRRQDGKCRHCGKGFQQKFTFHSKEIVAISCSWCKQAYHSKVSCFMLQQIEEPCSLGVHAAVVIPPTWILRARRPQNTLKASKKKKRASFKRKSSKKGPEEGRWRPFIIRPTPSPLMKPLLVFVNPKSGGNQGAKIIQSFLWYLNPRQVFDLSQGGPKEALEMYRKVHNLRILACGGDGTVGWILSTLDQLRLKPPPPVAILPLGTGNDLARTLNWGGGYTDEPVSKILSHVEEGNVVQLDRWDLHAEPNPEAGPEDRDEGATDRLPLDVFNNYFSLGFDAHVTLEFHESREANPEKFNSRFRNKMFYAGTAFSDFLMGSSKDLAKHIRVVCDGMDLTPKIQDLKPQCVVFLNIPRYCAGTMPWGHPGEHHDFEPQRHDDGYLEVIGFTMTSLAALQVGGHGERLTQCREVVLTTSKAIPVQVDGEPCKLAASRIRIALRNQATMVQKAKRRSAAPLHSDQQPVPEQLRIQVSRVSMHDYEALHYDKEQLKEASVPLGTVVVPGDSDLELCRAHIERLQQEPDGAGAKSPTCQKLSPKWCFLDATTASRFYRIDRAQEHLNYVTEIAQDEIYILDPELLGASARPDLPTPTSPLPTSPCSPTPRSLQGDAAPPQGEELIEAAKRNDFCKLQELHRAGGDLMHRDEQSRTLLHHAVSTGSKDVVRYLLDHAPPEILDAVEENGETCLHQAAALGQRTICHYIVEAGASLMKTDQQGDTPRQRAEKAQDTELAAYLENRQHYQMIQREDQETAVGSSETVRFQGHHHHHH
# Procedure, shortened: (§1)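 Enzymes were baculovirus/Sf9 full-length human DGKα or DGKζ with His tag. The substrate was PS/DAG in octyl glucoside micelles, in MOPS pH 7.5 buffer with NaCl, MgCl2, CaCl2 and DTT.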
# human DGKα [2] = molecular target: T2, human DGKα (Homo sapiens (Human), UniProt P23743); assay: biochemical
# T2 sequence (P23743 other isoform, or with tags, fused parts or gaps): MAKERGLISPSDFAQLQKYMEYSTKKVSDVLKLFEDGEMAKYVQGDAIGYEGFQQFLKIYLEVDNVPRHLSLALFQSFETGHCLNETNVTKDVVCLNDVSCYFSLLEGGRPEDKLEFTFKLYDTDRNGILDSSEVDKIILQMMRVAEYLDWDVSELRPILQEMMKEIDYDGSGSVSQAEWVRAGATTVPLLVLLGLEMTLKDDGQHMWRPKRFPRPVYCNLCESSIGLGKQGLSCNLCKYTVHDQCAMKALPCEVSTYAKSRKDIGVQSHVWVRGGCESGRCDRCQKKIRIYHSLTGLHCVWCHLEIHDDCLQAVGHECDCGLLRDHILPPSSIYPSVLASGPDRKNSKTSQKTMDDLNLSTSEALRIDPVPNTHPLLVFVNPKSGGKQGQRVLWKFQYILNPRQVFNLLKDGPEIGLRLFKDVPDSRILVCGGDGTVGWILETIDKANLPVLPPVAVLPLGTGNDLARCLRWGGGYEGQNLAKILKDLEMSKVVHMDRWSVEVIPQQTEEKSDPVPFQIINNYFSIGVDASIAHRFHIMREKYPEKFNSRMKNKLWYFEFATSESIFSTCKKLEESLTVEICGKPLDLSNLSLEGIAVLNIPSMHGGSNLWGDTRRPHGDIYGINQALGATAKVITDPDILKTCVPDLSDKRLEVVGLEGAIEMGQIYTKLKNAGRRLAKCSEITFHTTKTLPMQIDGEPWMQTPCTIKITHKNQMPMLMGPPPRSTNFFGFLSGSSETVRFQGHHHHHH
# Procedure, shortened: as §1
# [3] = tested on: Jurkat AP1-luciferase Reporter; assay: DGK AP1-Reporter Assay; type: cell-based
# Experimental: The Jurkat AP1-luciferase Reporter was generated using the Cignal Lenti AP1 Reporter (luc) Kit from SABiosciences (CLS-011L).
# The sample size was 30 nl per well; and one destination plate per source plate. The cell suspensions were prepared by transferring 40 mL cells (2×20 mL) to clean 50 mL conical tubes. The cells were concentrated by centrifugation (1200 rpm; 5 mins; ambient temperature). […] The cell plates were incubated for 20 minutes at 37° C., and 5% CO2.
# During the incubation, anti-CD3 antibody (αCD3) solutions were prepared by mixing 3 μl αCD3 (1.3 mg/mL) with 10 mL medium [final conc=0.4 μg/mL]. Next, 1.5 μl αCD3 (1.3 mg/mL) was mixed with 0.5 mL medium [final conc=4 μg/mL]. After 20 minutes, 10 μl medium was added to all wells in column 1, wells A to M, and 10 μl αCD3 (4 μg/mL) per well was added in column 1, rows N to P for reference. Then using a multi-channel pipette, 10 μl αCD3 (0.4 μg/mL) per well was added. The αCD3 stimulated +/− compound-treated cells were incubated at 37° C., 5% CO2 for 6 hours.
# During this incubation period. Steady-Glo (Promega E2520) reagent was slowly thawed on to ambient temperature. Next, 20 μl Steady-Glo reagent per well was added using a multi-drop Combi-dispenser. Bubbles were removed by centrifugation (2000 rpm, ambient temperature, 10 sees). The cells were incubated at room temperature for 5 minutes. Samples were characterized by measuring the Relative Light Units (RLU) with an using Envision Plate Reader Instrument on a luminescence protocol.
# [4] = tested on: pre-activated CD4 T cells and Raji cells; assay: Raji CD4 T Cell IL2 Assay; type: cell-based
# human DGKζ [5] = molecular target: T1, human DGKζ; assay: DGKζ LIPGLO assay (extruded liposome substrate); type: biochemical; conditions: extruded liposome substrate; read-out: DGKζ LIPGLO IC50
# Procedure, shortened: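 Sf9-derived DGKζ was premixed 10 min with PC/DAG/PS liposomes (100 nm extruded) in MOPS pH 7.5 buffer containing NaCl, MgCl2, CaCl2 and DTT.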
# naïve human CD8 T cells = assay: cells; conditions: Homo sapiens, T-cell, read-out: HuCD8 INFG Normalized EC50, anti-CD3 plus anti-CD28 as baseline; 3 μM Example 40 co-stimulation as 100% activation
# Experimental: Frozen naïve human CD8 T cells were thawed in ATM-V media, incubated for 2 h in 37° C., and counted. The 384-well tissue culture plate was coated overnight at 4° C. with 20 μl anti-human CD3 at 0.05 μg/mL in PBS, which was removed off the plate before 40,000 cells per 40 microliters CD8 T cells with 0.1 μg/mL soluble anti-human CD28 were added to each well. The compounds were transferred using an Echo liquid handler to the cell plate immediately after the cells were plated. After 20 h incubation at 37° C. incubator, 3 microliters per well supernatants transferred into a new 384-well white assay plate for cytokine measurement.
# Interferon-γ (IFN-γ) was quantitated using the AlphaLISA kit (Cat #AL217) as described by the manufacturer manual (Perkin Elmer). The counts from each well were converted to IFN-γ concentration […].
# human DGKα [6] = molecular target: T2, human DGKα; assay: DGKα LIPGLO assay (extruded liposome substrate); type: biochemical
# Procedure, shortened: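 Human full-length DGKα, His-tagged and produced in Sf9 cells, assayed at 20 nM (4× stock) on extruded liposomes of PS, 0.25 mM DAG and 2.75 mM PC, preincubated 10 min. Reaction started with 300 μM ATP (stock) and ran 1 h in MOPS pH 7.5/MgCl2/CaCl2/DTT buffer.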
# [7] = detergent/lipid micelle substrate, read-out: DGKα IC50
# [8] = Homo sapiens, Jurkat, read-out: API-Luciferase Reporter IC50, Table 3
# [9] = Homo sapiens, Jurkat, read-out: DGKAP1 Lucif Reporter IC50, Table 4
# [10] = read-out: API-Luciferase Reporter IC50, Table 3
structure (smiles),measurement,setting,value
"COc1cccc(Cl)c1CN1CCN(c2c(C#N)c(=O)n(C)c3ccc(Cl)nc23)CC1 [Example 365, 6-chloro-4-{4-[(2-chloro-6-methoxyphenyl)methyl]piperazin-1-yl}-1-methyl-2-oxo-1,2-dihydro-1,5-naphthyridine-3-carbonitrile]",IC50,human DGKζ [1],190 µM
same,IC50,human DGKα [2]; [7],3.5 µM
same,IC50,[3]; [8],2.22 µM
same,IC50,[3]; [9],10 µM
same,IC50,"[4]; Homo sapiens, Raji",> 100 µM
"Cn1c(=O)c(C#N)c(N2CCN(Cc3cccc4cc[nH]c34)CC2)c2nc(Br)ccc21 [Example 373, 6-bromo-4-{4-[(1H-indol-7-yl)methyl]piperazin-1-yl}-1-methyl-2-oxo-1,2-dihydro-1,5-naphthyridine-3-carbonitrile]",IC50,human DGKζ [1],100 µM
same,IC50,human DGKα [2]; [7],2.5 µM
same,IC50,[3]; [8],0.26 µM
same,IC50,"[4]; Homo sapiens, Raji",> 100 µM
"Cn1c(=O)cc(N2CCN(C(c3ccc(F)cc3)c3ccc(F)cc3)CC2)c2nc(C#N)ccc21 [Example 432, 8-{4-[bis(4-fluorophenyl)methyl]piperazin-1-yl}-5-methyl-6-oxo-5,6-dihydro-1,5-naphthyridine-2-carbonitrile]",IC50,human DGKζ [5],5.4 µM
same,EC50,naïve human CD8 T cells,0.06 µM
same,IC50,human DGKα [6],> 240 µM
"Cn1c(=O)c(C#N)c(N2CCN(C(c3ccccc3)c3ccc(F)cc3)CC2)c2nc(C#N)ccc21 (stereo not drawn) [Example 411, 8-{4-[(4-fluorophenyl)(phenyl)methyl]piperazin-1-yl}-5-methyl-6-oxo-5,6-dihydro-1,5-naphthyridine-2,7-dicarbonitrile]",IC50,human DGKζ [5],1.4 µM
same,EC50,naïve human CD8 T cells,0.02 µM
same,IC50,human DGKα [6],4.9 µM
"COc1ccccc1C(c1ccc(F)cc1)N1CCN(c2c([N+](=O)[O-])c(=O)n(C)c3ccc(C#N)nc23)CC1 (single isomer, unassigned) [Example 19, 8-{4-[(4-fluorophenyl)(2-methoxyphenyl)methyl]piperazin-1-yl}-5-methyl-7-nitro-6-oxo-5,6-dihydro-1,5-naphthyridine-2-carbonitrile]",IC50,human DGKζ [1],19 µM
same,IC50,human DGKα [2]; [7],13 µM
same,IC50,[3]; [10],0.83 µM
same,IC50,"[4]; Homo sapiens, Raji",> 100 µM
"Cn1c(=O)c(C#N)c(N2CCN(Cc3ccc(O)c(F)c3)CC2)c2nc(C#N)ccc21 [Example 363, 8-{4-[(3-fluoro-4-hydroxyphenyl)methyl]piperazin-1-yl}-5-methyl-6-oxo-5,6-dihydro-1,5-naphthyridine-2,7-dicarbonitrile]",IC50,human DGKζ [1],> 240 µM
same,IC50,human DGKα [2]; [7],0.15 µM
same,IC50,[3]; [8],10 µM
same,IC50,"[4]; Homo sapiens, Raji",> 100 µM
"Cn1c(=O)c([N+](=O)[O-])c(N2CCN(C(c3ccccc3)c3ccccc3O)CC2)c2nc(Br)ccc21 (single isomer, unassigned) [Example 78, 6-bromo-4-(4-((2-hydroxyphenyl)(phenyl)methyl)piperazin-1-yl)-1-methyl-3-nitro-1,5-naphthyridin-2(1H)-one]",IC50,human DGKζ [1],> 240 µM
same,IC50,human DGKα [2]; [7],12 µM
same,IC50,[3]; [8],0.14 µM
same,IC50,[4],> 100 µM
"COCCn1c(=O)c([N+](=O)[O-])c(N2CCN(C3CCc4ccc(OC)cc43)CC2)c2nc(C#N)ccc21 (stereo not drawn) [Example 146, 8-(4-(6-methoxy-2,3-dihydro-1H-inden-1-yl)piperazin-1-yl)-5-(2-methoxyethyl)-7-nitro-6-oxo-5,6-dihydro-1,5-naphthyridine-2-carbonitrile]",IC50,human DGKζ [1],36 µM
same,IC50,human DGKα [2]; [7],> 240 µM
same,IC50,[3]; [8],1.87 µM
same,IC50,"[4]; Homo sapiens, Raji",> 100 µM
"C#CCn1c(=O)c([N+](=O)[O-])c(N2CCN(C3CCc4ccc(OC)cc43)CC2)c2nc(C#N)ccc21 (stereo not drawn) [Example 138, 8-(4-(6-methoxy-2,3-dihydro-1H-inden-1-yl)piperazin-1-yl)-7-nitro-6-oxo-5-(prop-2-yn-1-yl)-5,6-dihydro-1,5-naphthyridine-2-carbonitrile]",IC50,human DGKζ [1],0.73 µM
same,IC50,human DGKα [2]; [7],32 µM
same,IC50,[3]; [8],0.66 µM
same,IC50,"[4]; Homo sapiens, Raji",> 100 µM
"Cn1c(=O)c(C#N)c(N2CCN(Cc3c(F)cccc3F)CC2)c2nc(Cl)ccc21 [Example 422, 6-chloro-4-{4-[(2,6-difluorophenyl)methyl]piperazin-1-yl}-1-methyl-2-oxo-1,2-dihydro-1,5-naphthyridine-3-carbonitrile]",IC50,human DGKζ [1],> 240 µM
same,IC50,human DGKα [2]; [7],1.4 µM
same,IC50,[3]; [8],3.49 µM
same,IC50,"[4]; Homo sapiens, Raji",> 100 µM
"CCC(c1ccc(F)cc1)N1CCN(c2c(C#N)c(=O)n(C)c3ccc(C)nc23)CC1 (racemic) [Example 398, 4-{4-[1-(4-fluorophenyl)propyl]piperazin-1-yl}-1,6-dimethyl-2-oxo-1,2-dihydro-1,5-naphthyridine-3-carbonitrile]",IC50,human DGKζ [5],> 240 µM and 49 µM
same,EC50,naïve human CD8 T cells,1.21 µM
"C#CCn1c(=O)c(C#N)c(N2CCN(Cc3c(C)cc(C)cc3O)CC2)c2nc(Br)ccc21 [Example 69, 6-bromo-4-(4-(2-hydroxy-4,6-dimethylbenzyl)piperazin-1-yl)-2-oxo-1-(prop-2-yn-1-yl)-1,2-dihydro-1,5-naphthyridine-3-carbonitrile]",IC50,human DGKζ [1],13 µM
same,IC50,human DGKα [2]; [7],1.3 µM
same,IC50,[3]; [8],0.51 µM
same,IC50,"[4]; Homo sapiens, Raji",> 100 µM
"C#CCn1c(=O)c([N+](=O)[O-])c(N2CCN(C(C)c3ccc(F)cc3)CC2)c2nc(C#N)ccc21 (racemic) [Example 135, 8-(4-(1-(4-fluorophenyl)ethyl)piperazin-1-yl)-7-nitro-6-oxo-5-(prop-2-yn-1-yl)-5,6-dihydro-1,5-naphthyridine-2-carbonitrile]",IC50,human DGKζ [1],1.3 µM
same,IC50,human DGKα [2]; [7],0.18 µM
same,IC50,[3]; [8],0.34 µM
"Cc1ccc(F)c(CN2CCN(c3c(C#N)c(=O)n(C)c4ccc(Cl)nc34)CC2)c1 [Example 364, 6-chloro-4-{4-[(2-fluoro-5-methylphenyl)methyl]piperazin-1-yl}-1-methyl-2-oxo-1,2-dihydro-1,5-naphthyridine-3-carbonitrile]",IC50,human DGKζ [1],> 240 µM
same,IC50,human DGKα [2]; [7],1.1 µM
same,IC50,[3]; [8],1.57 µM
same,IC50,[3]; [9],10 µM
same,IC50,"[4]; Homo sapiens, Raji",> 100 µM
"C#CCn1c(=O)c([N+](=O)[O-])c(N2CCN(C(c3ccc(F)cc3)c3ccccc3OC)CC2)c2nc(C#N)ccc21 (single isomer, unassigned) [Example 131, 8-(4-((4-fluorophenyl)(2-methoxyphenyl)methyl)piperazin-1-yl)-7-nitro-6-oxo-5-(prop-2-yn-1-yl)-5,6-dihydro-1,5-naphthyridine-2-carbonitrile]",IC50,human DGKζ [1],0.37 µM
same,IC50,human DGKα [2]; [7],11 µM
same,IC50,[3]; [8],0.5 µM
"C#CCn1c(=O)c([N+](=O)[O-])c(N2CCN(C(c3ccc(F)cc3)c3ccccc3O)CC2)c2nc(C#N)ccc21 (racemic) [Example 132, 8-(4-((4-fluorophenyl)(2-hydroxyphenyl)methyl)piperazin-1-yl)-7-nitro-6-oxo-5-(prop-2-yn-1-yl)-5,6-dihydro-1,5-naphthyridine-2-carbonitrile]",IC50,human DGKζ [1],0.15 µM
same,IC50,"human DGKα [2]; DGKα IC50, detergent/lipid micelle substrate",3.3 µM
same,IC50,[3]; [8],0.08 µM
"COc1ccccc1C(c1ccc(F)cc1)N1CCN(c2c([N+](=O)[O-])c(=O)n(C)c3ccc(C#N)nc23)CC1 (single isomer, unassigned) [Example 20, 8-{4-[(4-fluorophenyl)(2-methoxyphenyl)methyl]piperazin-1-yl}-5-methyl-7-nitro-6-oxo-5,6-dihydro-1,5-naphthyridine-2-carbonitrile]",IC50,human DGKζ [1],4.3 µM
same,IC50,human DGKα [2]; [7],3.3 µM
same,IC50,[3]; [10],0.4 µM
same,IC50,[4],> 100 µM
